Like-named read-outs stand apart in the source and are kept apart here. Each block holds one compound with its values, some of them ahead of it.
How the values were obtained:
[1] = molecular target: T1, LTD4 (contraction of isolated guinea pig trachea) (Cavia porcellus, UniProt Q2NNR5); assay: Isolated guinea pig trachea assay, LTD4 antagonist activity; assay type: cell-based
T1 construct: from tissue; host or cells: isolated tracheal rings of male Hartley guinea pigs
T1 sequence (Q2NNR5 1-340): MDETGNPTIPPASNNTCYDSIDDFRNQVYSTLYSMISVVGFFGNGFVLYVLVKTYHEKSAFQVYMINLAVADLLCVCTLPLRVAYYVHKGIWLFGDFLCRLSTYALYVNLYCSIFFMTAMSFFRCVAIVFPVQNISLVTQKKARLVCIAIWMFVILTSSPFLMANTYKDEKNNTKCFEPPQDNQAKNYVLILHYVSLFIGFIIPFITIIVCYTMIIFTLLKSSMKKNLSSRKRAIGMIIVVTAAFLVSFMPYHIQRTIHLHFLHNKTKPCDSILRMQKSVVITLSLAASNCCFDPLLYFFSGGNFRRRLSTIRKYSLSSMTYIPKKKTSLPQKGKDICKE
Procedure: The compounds of the invention are tested in the isolated guinea pig trachea assay to assess their LTD4 antagonist activity. Male Hartley guinea pigs (350-400 g) are euthanized by a blow to the head, the neck is opened and the trachea removed. The trachea is maintained in aerated physiological salt solution, cleared of connective tissue and fat and cut into rings approximately 2 mm in width (usually containing two cartilaginous segments per ring). Two pieces of silk suture are then passed through the lumen of the tracheal ring and are tied around the cartilage, one on each side of the trachealis muscle. The tracheal ring is suspended between a glass hook and a force displacement transducer in a 10 ml organ bath for measurement of isometric tension. Tissues are maintained at 37° C. in aerated (95% O2 /5% CO2) physiological salt solution of the following composition: […] The tracheal rings are maintained at 2 g resting tension and equilibrated for 45 minutes (with frequent washing and readjustment of resting tension). The tracheal rings are first contracted by the addition of carbachol (3×10^-6 M), to determine tissue responsiveness and establish a reference contraction. On attainment of a stable level of contraction (approximately 30 minutes), the tissues are washed several times until baseline tension has been restored and then re-equilibrated for 30 minutes. The tissues are then incubated for 45 minutes with a test antagonist (either 1×10^-6 M or 1×10^-5 M) or 10 μl of an appropriate solvent control (control, non-treated). One tissue in each group serves as the control. Twenty minutes prior to the construction of the LTD4 cumulative concentration-response curve, L-[…]×10^-2 M final bath concentration) is added to inhibit bioconversion of LTD4 to LTE4. Only one LTD4 concentration-response curve is constructed in each tissue. All responses to LTD4 are calculated as a percentage of the reference contraction to carbachol. LTD4 antagonist activity is determined by comparison of the concentration response curves of LTD4 in the presence and absence of antagonist. Assessment of the relative rightward shift of the antagonist treated curve relative to the solvent (control) treated tissue is calculated as a concentration ratio (Eq. A) and used in subsequent calculations to derive an antagonist pKB value (Eqs B&C). In the event that the maximum response to LTD4 is depressed, the EC50 for that particular curve is determined, an "apparent" pKB reported, and the compound reported as "not-competitive."

[2] = molecular target: T1, LTD4 (contraction of isolated guinea pig trachea); conditions: literature value, reference (1); cited from earlier work
[3] = test system: ovalbumin induced bronchospasm; assay: In vivo inhibition of ovalbumin induced bronchospasm in sensitized guinea pigs (endogenous mediators); design: species or system guinea pig; conditions: 25 mg/kg, intragastrically, 10 minutes before intravenous ovalbumin challenge
Procedure: The assay of this Example measures the in vivo ability of the compounds of the invention to inhibit the bronchospasm induced in guinea pigs by endogenous mediators of the bronchoconstriction.
Male Hartley strain guinea pigs weighing 250-350 g are sensitized to chicken ovalbumin (OA) (10 mg i.p.) on days 1 and 3 and used starting on day 26. The animals are anesthetized with pentobarbital sodium (50 mg/kg, i.p.), bilateral vagotomy is performed, and the jugular vein is cannulated for injection of drugs and the carotid artery for monitoring blood pressure. The trachea is cannulated for artificial ventilation by miniature Starling pump and for indirect measurement of respiratory volume changes as described, infra. Succinylcholine (2 mg/kg, i.v.) is administered to arrest spontaneous respiration. […]
Respiratory volume changes are determined by a calibrated piston whose travel is recorded, via a linear transducer, on a Beckman Dynograph recorder. Maximal bronchoconstrictor volume is determined by clamping off the trachea at the end of the experiment. Overflow volumes at minutes 1, 3 and 5 are obtained from the recorded charts.
Area under the volume overflow curve (AUC) is estimated, using the overflow values at 1, 3 and 5 minutes, and expressed as a percentage of the maximal overflow AUC (equation 1): [formula] […]

[4] = test system: LTD4 induced bronchoconstriction; assay: In vivo inhibition of LTD4 induced bronchospasm in guinea pigs (exogenously administered leukotrienes); design: species or system guinea pig; conditions: 10 minutes before induction of bronchospasm (LTD4)
[5] = test system: TxB2 synthesis (cyclooxygenase); assay: Inhibition of synthesis of cyclooxygenase oxidation product TxB2 (rat polymorphonuclear leukocytes); assay type: cell-based; conditions: Leukocyte, rat PMN
Procedure: (§1) Peritoneal PMN are obtained from female Wistar rats (150-250 g) that received an i.p. injection of 6% glycogen (10 ml). After 24 hours, rats are killed by CO2 asphyxiation and peritoneal cells are harvested by peritoneal lavage using Ca^++ and Mg^++ free Hanks' balanced salt solution (HBSS). The peritoneal exudate is centrifuged at 400 g for 10 minutes. After centrifugation, the lavaged fluid is removed and the cell pellet is resuspended in HBSS containing Ca^++ and Mg^++ and 10 mM L-cysteine at a concentration of 2×10^7 cells/ml. To 1 ml portions of cell suspension, test drugs or vehicle are added and incubated at 37° C. for 10 minutes. Following this preincubation, the calcium ionophore (10 μM), A23187, is added together with 0.5 μCi [^14 C] arachidonic acid and further incubated for 10 minutes. The reaction is stopped by the addition of ice cold water (3 ml) and acidification to pH 3.5. Lipoxygenase products are then extracted twice into diethyl ether. The pooled ether extracts are evaporated to dryness under nitrogen and the residue is redissolved in a small volume of methanol and spotted on aluminum backed pre-coated thin layer chromatographic plates. The samples are then co-chromatographed with authentic reference 5,12-diHETE in the solvent system-hexane:ether:acetic acid (50:50:3). After chromatography, the areas associated with 5,12-diHETE standard are identified by autoradiography, cut out and quantitated by liquid scintillation.
The procedure of Example 17 is also employed for the determination of the ability of the compounds of the invention to inhibit the synthesis of the arachidonic acid cyclooxygenase oxidation product TxB2.
In this assay, the procedure of Example 17 is carried out as described. However, in order to determine cyclooxygenase activity, the samples are cochromatographed with authentic reference TxB2 in the solvent system ethyl acetate:formic acid (80:1) and the upper phase of ethyl acetate:isoctane:acetic acid:water (110:50:20:100). After chromatography, the areas associated with TxB2 standard are identified by autoradiography, cut out and quantitated by liquid scintillation techniques.
The results are calculated as in Example 12 and presented below: […]

[6] = test system: 5,12-diHETE synthesis by rat glycogen-elicited polymorphonuclear leukocytes; assay: Inhibition of 5,12-diHETE synthesis by rat glycogen-elicited polymorphonuclear leukocytes; assay type: cell-based; conditions: Leukocyte, rat PMN
Procedure: This is especially true with respect to 5,12-diHETE, which is also denoted as LTB4 [see Ford-Hitchinson, J. Roy. Soc. Med., 74, 831 (1981)]. The assay of this Example measures the ability of the compounds of the invention to inhibit the synthesis of 5,12-diHETE by rat glycogen-elicited polymorphonuclear leukocytes.
as §1
Results are expressed as the 50% Inhibitory concentration, or as percent inhibition at a given.

[7] = test system: acute inflammatory response (carrageenan paw edema); assay: Rat carrageenan paw edema assay; assay type: in vivo; conditions: po, 50 mg/kg peroral, 1 hour prior to carrageenan, edema at 3 hours
Procedure: The compounds of the invention are tested in the rat carrageenan paw edema assay to determine their ability to inhibit the acute inflammatory response. 140-180 gm male Sprague-Dawley rats, in groups of 6 animals, are injected subcutaneously in the right paw with 0.1 ml of 1% carrageenan at zero time. Mercury plethysmographic readings (ml) of the paw are made at zero time and 3 hours later. Test compounds are suspended or dissolved in 0.5% methylcellulose and given perorally 1 hour prior to carrageenan administration. The increase in paw volume (edema in ml.) produced by the carrageenan is measured. […] Unpaired Student's t-test is used to determine statistical significance.

[8] = reference compounds, LTD4 concentration-response curve, read-out: pKB (converted)
[9] = A23187 10 μM, read-out: 50% Inhibitory Concentration (IC50)

- Kb [1, 8]: 126 nM
Structure (SMILES): CCCc1c(OCCCCc2nn[nH]n2)ccc(C(C)=O)c1O [LY-171,883, reference compound]
- pKB (Reference) [2]: 6.65

- IC50 [5, 9]: 1700 nM
- IC50 [6, 9]: 3.2 µM
Structure (SMILES): O=S(=O)(Nc1cccc(OCc2csc(-c3ccccc3)n2)c1)C(F)(F)F [Example 3, 1,1,1-Trifluoro-N-[3-[(2-phenyl-4-thiazolyl)methoxy]phenyl]methanesulfonamide]
- % Inhibition [3]: 10%
- ED50 ([4]; Cavia porcellus, intragastrically, read-out: ED50): 2.4 mg/kg
- ED50 ([4]; intragastrically): 3.0 mg/kg
- inhibition in vivo at 50 mg/kg [7]: 51%

Structure (SMILES): O=S(=O)(Nc1cccc(OCc2csc(-c3ccc(F)cc3)n2)c1)C(F)(F)F [Example 9B, 1,1,1-Trifluoro-N-[3-[[2-(4-fluorophenyl)-4-thiazolyl]methoxy]phenyl]methanesulfonamide]
- inhibition in vivo at 25 mg/kg ([4]; Cavia porcellus, intraduodenal, 25 mg/kg, intraduodenally): 100%
- inhibition in vivo at 10 mg/kg ([4]; Cavia porcellus, po, 10 mg/kg, intragastrically): 92%
- inhibition at 10 µM ([5]; 10 μM): 32%
- inhibition at 10 µM ([6]; 10 μM): 64%
- inhibition in vivo at 50 mg/kg [7]: 55%

- Kb ([1]; antagonist concentration 1 × 10^-6 M, read-out: pKB ± S.E. (converted)): 83.2 nM
- Kb [1, 8]: 36.3 nM
Structure (SMILES): O=S(=O)(Nc1cccc(OCc2ccc3ccccc3n2)c1)C(F)(F)F [Wy-48,252, reference compound]
- pKB (Reference) [2]: 7.70

— patent publication US5103014A, “Certain 3,3'-[[[(2-phenyl-4-thiazolyl)methoxy]phenyl]methylene]dithiobis-propano ic acid derivatives” (American Home Products Corporation, priority 1990, dated 1992)
